{
  "source": "patent US9271961B2",
  "about": "“Bifunctional AKR1C3 inhibitors/androgen receptor modulators and methods of use thereof” (THE TRUSTEES OF THE UNIVERSITY OF PENNSYLVANIA, priority 2011, dated 2016)",
  "key": {"[1]": {"system": "AKR1C enzymes", "assay": "Inhibition of AKR1C enzymes (FIG. 20)", "type": "biochemical"}, "[2]": {"biological_target": "T1, AKR1C3 (Homo sapiens (Human), UniProt P42330)", "assay": "Inhibition of NADP+ dependent oxidation of S-tetralol by recombinant AKR1C3", "type": "biochemical", "settings": "for IC50: S-tetralol oxidation, substrate at KM", "protocol": "The inhibitory potency of the compounds disclosed herein was determined using purified homogenous recombinant enzymes. Full concentration response studies were conducted and IC50 values calculated using Grafit 5.0 software. The compounds were evaluated for their effects on enzyme catalyzed oxidation of S-tetralol using a 96-well plate format.\nThe primary screen was also modified to report the following ratio: AKR1C2 IC50 value:AKR1C3 IC50 value. […] When bifunctional AKR1C3 and SARMs are sought the androgen receptor reporter gene assay is moved up in sequence.\nBased on this assumption, the screening strategy adopted was to determine the inhibitory potency of each compound against AKR1C2 and AKR1C3 and use the ratio of IC50 value for AKR1C2:IC50 value for AKR1C3 as an index of compound selectivity for AKR1C3. The inhibitory potency of compounds on AKR1C2 and AKR1C3 was determined by measuring the inhibition of the NADP^+ dependent oxidation of S-tetralol."}, "[3]": {"biological_target": "T1, AKR1C3", "assay": "Conversion of Δ4-AD to testosterone in LNCaP cells stably transfected with AKR1C3", "type": "cell-based", "settings": "for amount of testosterone formed from Δ4-AD: LNCaP-AKR1C3 cells; for conversion of Δ4-AD to testosterone: LNCaP-AKR1C3 transfected cells, 10 μM", "protocol": "LNCaP cells were stably transfected with AKR1 C3 using the retroviral construct pLNCX-AKR1C3, and its expression was documented using both RT-PCR and immunoblot analysis using an isoform specific monoclonal AKR1C3 antibody (Byrns et al., 2012, J. Steroid Biochem. Mol. Biol. 130:7-15). Metabolism studies of 0.1 μM and 5.0 μM [^14C]-Δ^4-AD were conducted in LNCaP and LNCaP-AKR1C3 cells with the anticipation that the transfected cells would form more testosterone. The bulk of the metabolites formed in LNCaP cells were found in the aqueous phase. When this phase was treated with β-glucuronidase (200 units/mL at pH 6.6) and re-extracted, androsterone was the predominate metabolite released into the organic soluble fraction providing evidence for the formation of androsterone-3α-glucuronide. When LNCaP-AKR1C3 transfected cells were used, the bulk of the metabolites were again found in the aqueous phase. However, β-glucuronidase treatment of the aqueous phase yielded both androsterone and testosterone, providing evidence for testosterone formation by these cells.\nTertiary screens of the compounds of interest include: (a) inhibition of the conversion of Δ^4-AD to testosterone in LNCaP (AR dependent prostate cancer) cells stably transfected with AKR1C3; (b) inhibition of Δ^4-AD mediated cell proliferation in LNCaP cells stably transfected with AKR1C3; and (c) inhibition of growth of castrate resistant prostate cancer cells in culture."}, "[4]": {"biological_target": "T2, AR (Homo sapiens (Human), UniProt P10275)", "assay": "AR stability / degradation in Hela cells", "type": "cell-based", "settings": "10-40 μM, presence and absence of 0.1 nM 5α-DHT"}, "[5]": {"system": "prostatic specific antigen (PSA) gene expression", "assay": "AR regulated PSA gene expression in LNCaP cells", "type": "cell-based", "settings": "10-30 μM, presence and absence of 5α-DHT (0.1-1.0 nM)"}, "[6]": {"biological_target": "T2, AR", "assay": "AR nuclear translocation from the cytosol in HeLa 13 cells", "settings": "presence of DHT", "quoted_text": "AR LE and AR SE=long and short exposure to detect cytoplasmic AR. β-tubulin was used as a loading control."}, "[7]": {"biological_target": "retinal reductase (AKR1B10) (Homo sapiens (Human), UniProt O60218)", "assay": "Secondary screen against retinal reductase", "type": "biochemical"}, "[8]": {"biological_target": "aldose reductase (AKR1B1) (Homo sapiens (Human), UniProt P15121)", "assay": "Secondary screen against aldose reductase", "type": "biochemical"}, "[9]": {"biological_target": "COX-1 (Homo sapiens (Human), UniProt P23219)", "assay": "Screen against COX-1", "type": "biochemical"}, "[10]": {"system": "mutated AR and PSA expression", "assay": "Mutated AR levels and PSA expression in LNCaP-AKR1C3 cells", "type": "cell-based", "settings": "presence of either 1.0 nM 5α-DHT or 100 nM Δ4-AD"}, "[11]": {"biological_target": "COX-2 (Homo sapiens (Human), UniProt P35354)", "assay": "Screen against COX-2", "type": "biochemical"}, "[12]": {"biological_target": "T1, AKR1C3", "assay": "Inhibition of AKR1C3 catalyzed reduction of Δ4-androstene-3,17-dione to testosterone", "type": "biochemical", "source_text": "Compounds may be evaluated as selective reversible inhibitors of AKR1C3 by screening them against homogeneous recombinant AKR1C1-AKR1C4 expressed in E. coli. […] IC50 values are generated using steroid concentrations at KM.\nThe primary screen was also modified to report the following ratio: AKR1C2 IC50 value:AKR1C3 IC50 value. A high ratio reflects a high selectivity for AKR1C3 and data are used to generate heat-maps, FIG. 14. This method is preferred to measuring percent inhibition using a single concentration of 1.0 μM inhibitor, since this single point method is prone to identifying false positives. […] The leads may then be moved into secondary in vitro screens (complete screen against all human AKR isoforms; COX-1 and COX-2; and other relevant human 17β-HSD isoforms); tertiary screens using cell-based assays (inhibition of AKR1C3 mediated testosterone production and AKR1C3 mediated cell proliferation in prostate cancer cell lines; and modulation of the androgen receptor in reporter gene assays); and quaternary screens in xenograft models of CRPC. When bifunctional AKR1C3 and SARMs are sought the androgen receptor reporter gene assay is moved up in sequence."}},
  "data": [
    {"compound": "4-chloro-N-phenylanthranilate [reference compound]", "values": [
      {"measurement": "inhibition of AKR1C enzymes", "setting": "[1]", "result": "inhibits"}
    ]},
    {"compound": "O=C(O)c1ccccc1Nc1cccc(C(F)(F)F)c1", "note": "[Compound 1, Flufenamic Acid, reference compound]", "values": [
      {"measurement": "IC50", "setting": "[2]", "result": 50, "unit": "nM"}
    ]},
    {"compound": "O=C(O)c1cccc(Nc2ccccc2)c1", "note": "[Compound 3, 3-Phenylamino benzoic acid]", "values": [
      {"measurement": "IC50", "setting": "[2]", "result": 940, "unit": "nM"}
    ]},
    {"compound": "O=C(O)c1cccc(Nc2ccc([N+](=O)[O-])cc2)c1", "note": "[Compound 5, 3-[N-(4-nitrophenyl)amino]benzoic acid]", "values": [
      {"measurement": "AKR1C3 inhibitory potency (in words)", "setting": "[2]", "result": "low nanomolar range"},
      {"measurement": "IC50", "setting": "[2]", "result": 36, "unit": "nM"}
    ]},
    {"compound": "O=C(O)c1cccc(Nc2ccc(C(F)(F)F)cc2)c1", "note": "[Compound 7, 3-[N-(4-Trifluoromethylphenyl)amino]benzoic acid]", "values": [
      {"measurement": "amount of testosterone formed from Δ4-AD", "setting": "[3]", "result": "significant decline"}
    ]},
    {"compound": "O=C(O)c1cccc(Nc2ccc(Cl)cc2)c1", "note": "[Compound 8, 3-[N-(4-Chlorophenyl)amino]benzoic acid]", "values": [
      {"measurement": "conversion of Δ4-AD to testosterone", "setting": "[3]", "result": "completely blocked"}
    ]},
    {"compound": "O=C(O)c1cccc(Nc2ccc([N+](=O)[O-])c3ccccc23)c1", "note": "[Compound 13, 3-((4-nitronaphthalen-1-yl)amino)benzoic acid]", "values": [
      {"measurement": "degradation of the AR", "setting": "[4]", "result": "dose-dependent degradation"},
      {"measurement": "expression of PSA", "setting": "[5]", "result": "block the expression of PSA"},
      {"measurement": "amount of testosterone formed from Δ4-AD", "setting": "[3]", "result": "significant decline"},
      {"measurement": "conversion of Δ4-AD to testosterone", "setting": "[3]", "result": "completely blocked"},
      {"measurement": "cytoplasmic AR (prevention of nuclear localization of the AR)", "setting": "[6]", "result": "dose dependent increase in cytoplasmic AR"},
      {"measurement": "inhibition of retinal reductase (AKR1B10)", "setting": "[7]", "result": "failed to inhibit"},
      {"measurement": "inhibition of aldose reductase (AKR1B1)", "setting": "[8]", "result": "failed to inhibit"},
      {"measurement": "inhibition of COX-1", "setting": "[9]", "result": "failed to inhibit"},
      {"measurement": "expression of the mutated AR and PSA", "setting": "[10]", "result": "decrease"},
      {"measurement": "inhibition of COX-2", "setting": "[11]", "result": "failed to inhibit"},
      {"measurement": "pattern of inhibition of AKR1C3", "setting": "[12]; Δ4-AD as substrate, E.NADPH.Δ4-AD complex", "result": "competitive inhibition"},
      {"measurement": "Ki", "setting": "[12]; Δ4-androstene-3,17-dione as substrate", "result": 2470, "unit": "nM"},
      {"measurement": "slope factor of the inhibition dose-response curve", "setting": "[2]; AKR1C3", "result": "approximately two"},
      {"measurement": "Ki", "setting": "[2]; S-tetralol as substrate", "result": 58.2, "unit": "nM"},
      {"measurement": "pattern of inhibition of AKR1C3", "setting": "[2]; S-tetralol as substrate, E.NADP+.S-tetralol complex", "result": "competitive inhibition"},
      {"measurement": "IC50", "setting": "[2]", "result": 75, "unit": "nM"}
    ]}
  ]
}
